Measured values from patent US20100311714A1, “1H-IMIDAZO[4,5-c]QUINOLINONE COMPOUNDS” (priority 2009, published 2010).
Read-outs that look alike come from different tables or passages of the source.

Experiments:
[1] = test system: PKB Ser473 phosphorylation in Rat1-myr-HA-p110 delta cells; experiment: Reverse protein array, PKB Ser473 phosphorylation in Rat1-myr-HA-p110 delta cells; type: cell-based; details: Rattus norvegicus, 0.5 h, 30 minutes compound incubation, read-out: p-PKB/IC50_delta
[2] = test system: S6 Ribosomal Protein phosphorylation Ser235/236 in TSC1 null mouse embryo fibroblast (MEF) cells; experiment: Reverse protein array, S6 Ribosomal Protein phosphorylation in TSC1 null MEF cells; type: cell-based; details: 1 h, TSC1-/- MEFs, 60 minutes
Summary of the method: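 Phospho-S6 (Ser235/236) was quantified by reverse protein array of cell lysates with a phospho-specific primary antibody. […]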

SMILES	IC50 [1]	IC50 ([2]; read-out: p-S6 IC50)	IC50 ([2]; read-out: p-S6)
COc1cc(-c2ccc3ncc4c(c3c2)n(-c2ccc(N3CC(O)C3)nc2C)c(=O)n4C)cnc1CO [Example 29.5, 1-[6-(3-Hydroxy-azetidin-1-yl)-2-methyl-pyridin-3-yl]-8-(6-hydroxymethyl-5-methoxy-pyridin-3-yl)-3-methyl-1,3-dihydro-imidazo[4,5-c]quinolin-2-one]	401 nM	39.1 nM	–
Cc1ncccc1-n1c(=O)n(C)c2cnc3ccc(-c4cncc(N5CCC5)c4)cc3c21 [Example 2.29, 8-(5-Azetidin-1-yl-pyridin-3-yl)-3-methyl-1-(2-methyl-pyridin-3-yl)-1,3-dihydro-imidazo[4,5-c]quinolin-2-one]	122 nM	5 nM	–
CNc1ccc(-c2ccc3ncc4c(c3c2)n(-c2cccnc2C)c(=O)n4C)cn1 [Example 2.13, 3-Methyl-8-(6-methylamino-pyridin-3-yl)-1-(2-methyl-pyridin-3-yl)-1,3-dihydro-imidazo[4,5-c]quinolin-2-one]	36.8 nM	–	2.78 nM
Cc1ncccc1-n1c(=O)n(C)c2cnc3ccc(-c4ccc(C(N)=O)cc4)cc3c21 [Example 2.3, 4-[3-Methyl-1-(2-methyl-pyridin-3-yl)-2-oxo-2,3-dihydro-1H-imidazo[4,5-c]quinolin-8-yl]-benzamide]	23.6 nM	–	56.4 nM
Cc1nc(F)ccc1-n1c(=O)n(C)c2cnc3ccc(-c4cnc5c(ccn5C)c4)cc3c21 [Example 7.2, 1-(6-Fluoro-2-methyl-pyridin-3-yl)-3-methyl-8-(1-methyl-1H-pyrrolo[2,3-b]pyridin-5-yl)-1,3-dihydro-imidazo[4,5-c]quinolin-2-one]	69.7 nM	–	17.9 nM
Cc1ncccc1-n1c(=O)n(C)c2cnc3ccc(-c4cnc(N)c(C(F)(F)F)c4)cc3c21 [Example 2.11, 8-(6-Amino-5-trifluoromethyl-pyridin-3-yl)-3-methyl-1-(2-methyl-pyridin-3-yl)-1,3-dihydro-imidazo[4,5-c]quinolin-2-one]	20.9 nM	–	2.35 nM
Cc1nc(N2CCCC2)ccc1-n1c(=O)n(C)c2cnc3ccc(-c4cncc(C(C)(C)O)c4)cc3c21 [Example 25.3, 8-[5-(1-Hydroxy-1-methyl-ethyl)-pyridin-3-yl]-3-methyl-1-(2-methyl-6-pyrrolidin-1-yl-pyridin-3-yl)-1,3-dihydro-imidazo[4,5-c]quinolin-2-one]	25.4 nM	< 0.457 nM	–
Cc1ncccc1-n1c(=O)n(C)c2cnc3ccc(-c4ccc(OCCCN(C)C)nc4)cc3c21 [Example 2.10, 8-[6-(3-Dimethylamino-propoxy)-pyridin-3-yl]-3-methyl-1-(2-methyl-pyridin-3-yl)-1,3-dihydro-imidazo[4,5-c]quinolin-2-one]	227 nM	–	159 nM
Cn1c(=O)n(-c2cccnc2F)c2c3cc(-c4cnc(N)c(C(F)(F)F)c4)ccc3ncc21 [Example 6.2, 8-(6-Amino-5-trifluoromethyl-pyridin-3-yl)-1-(2-fluoro-pyridin-3-yl)-3-methyl-1,3-dihydro-imidazo[4,5-c]quinolin-2-one]	11.5 nM	–	1.47 nM
CCOc1ccc(-c2ccc3ncc4c(c3c2)n(-c2ccc(N3CCNCC3)nc2OC)c(=O)n4C)cn1 [Example 9.1, 8-(6-Ethoxy-pyridin-3-yl)-1-(2-methoxy-6-piperazin-1-yl-pyridin-3-yl)-3-methyl-1,3-dihydro-imidazo[4,5-c]quinolin-2-one]	32.8 nM	–	13.5 nM
Cc1cccnc1-n1c(=O)n(C)c2cnc3ccc(-c4ccc(C(N)=O)cc4)cc3c21 [Example 3.3, 4-[3-Methyl-1-(3-methyl-pyridin-2-yl)-2-oxo-2,3-dihydro-1H-imidazo[4,5-c]quinolin-8-yl]-benzamide]	620 nM	–	297 nM
CNc1cncc(-c2ccc3ncc4c(c3c2)n(-c2cccnc2C)c(=O)n4C)c1 [Example 2.26, 3-Methyl-8-(5-methylamino-pyridin-3-yl)-1-(2-methyl-pyridin-3-yl)-1,3-dihydro-imidazo[4,5-c]quinolin-2-one]	67.3 nM	6 nM	–
Cc1nc(F)ccc1-n1c(=O)n(C)c2cnc3ccc(-c4cnc(N)c(C(F)(F)F)c4)cc3c21 [Example 7.1, 8-(6-Amino-5-trifluoromethyl-pyridin-3-yl)-1-(6-fluoro-2-methyl-pyridin-3-yl)-3-methyl-1,3-dihydro-imidazo[4,5-c]quinolin-2-one]	24.7 nM	–	2.23 nM
COc1ccc(-c2ccc3ncc4c(c3c2)n(-c2cccnc2C)c(=O)n4C)cn1 [Example 2.12, 8-(6-Methoxy-pyridin-3-yl)-3-methyl-1-(2-methyl-pyridin-3-yl)-1,3-dihydro-imidazo[4,5-c]quinolin-2-one]	79.8 nM	–	18 nM
COc1ncccc1-n1c(=O)n(C)c2cnc3ccc(-c4ccc(C(N)=O)cc4)cc3c21 [Example 1.6, 4-[1-(2-Methoxy-pyridin-3-yl)-3-methyl-2-oxo-2,3-dihydro-1H-imidazo[4,5-c]quinolin-8-yl]-benzamide]	29.3 nM	–	21.9 nM
COc1ccc(-c2ccc3ncc4c(c3c2)n(-c2cnccc2C)c(=O)n4C)cn1 [Example 4.3, 8-(6-Methoxy-pyridin-3-yl)-3-methyl-1-(4-methyl-pyridin-3-yl)-1,3-dihydro-imidazo[4,5-c]quinolin-2-one]	681 nM	–	220 nM
Cc1cccnc1-n1c(=O)n(C)c2cnc3ccc(-c4cnc(N)c(C(F)(F)F)c4)cc3c21 [Example 3.12, 8-(6-Amino-5-trifluoromethyl-pyridin-3-yl)-3-methyl-1-(3-methyl-pyridin-2-yl)-1,3-dihydro-imidazo[4,5-c]quinolin-2-one]	75.5 nM	–	13.2 nM
COc1ncc(-c2ccc3ncc4c(c3c2)n(-c2ccc(N3CC(O)C3)nc2C)c(=O)n4C)c(OC)n1 [Example 29.6, 8-(2,4-Dimethoxy-pyrimidin-5-yl)-1-[6-(3-hydroxy-azetidin-1-yl)-2-methyl-pyridin-3-yl]-3-methyl-1,3-dihydro-imidazo[4,5-c]quinolin-2-one]	119 nM	5 nM	–
CNc1ncc(-c2ccc3ncc4c(c3c2)n(-c2ccc(N3CCC(O)C3)nc2C)c(=O)n4C)cn1 (centres unmarked) [Example 27.2, 1-[6-(3-Hydroxy-pyrrolidin-1-yl)-2-methyl-pyridin-3-yl]-3-methyl-8-(2-methylamino-pyrimidin-5-yl)-1,3-dihydro-imidazo[4,5-c]quinolin-2-one]	20.7 nM	2 nM	–
